Results on 10 molecules are retold here after US5254682A, “Cyclic renin inhibitors containing 3(S)-amino-4-cyclohexyl-2(R)-hydroxy-butanoic acid or 4-cyclo-hexyl-(2R, 3S)-dihydroxybutanoic acid or related analogs” (Merck & Co., Inc., priority 1991, dated 1993).

For data set [1] the following is noted: amide bond, 2 steps.
For data set [2], the system named is sodium-deficient Rhesus monkeys. Put plainly: intravenous evaluation of renin inhibitors in conscious sodium-deficient Rhesus monkeys (blood pressure lowering). The class given is in vivo. The following applies: i.v. bolus. From the text: The following methods were used for in vivo evaluation of the renin inhibitors of Formula I: Intravenous evaluation of renin inhibitors in concious sodium-deficient Rhesus monkeys: Rhesus monkeys, male and female, weighing 2.6-4.5 Kg, were surgically prepared with chronic arterial and venous catheters and vascular access ports for direct monitoring of mean arterial pressure (MAP) and heart rate (HR). The animals were maintained on a low sodium diet (1.2 mmol Na/day) plus fruit for a week, and administered LASIX (furosemide) at 2.5 mg/Kg, intramuscularly the evening prior to the experiment. The animals had been trained to sit quietly in the chairs with water ad libium for the duration of the experiment. The inhibitors were administered by bolus injection using 0.5% acetic acid-5% dextrose in water as the vehicle (0.4 ml/Kg), and MAP and HR were measured. Blood samples were withdrawn at different time intervals beginning at the nadir of hypotensive response. PRA was determined as described above. […] A projected ED50 dose for each inhibitor was calculated using the following formula: ED50 (Test Inhibitor, umoles/Kg)=ED50 (SCRIP) X [IC50 (Test Inhibitor)/IC50 (SCRIP)], where the IC50 values were determined against human plasma renin. […] Percent inhibition of monkey PRA, changes in MAP and HR were calculated and plotted against time. […]

SMILES strings stand for the structures. Read-outs that look alike come from different tables or passages of the source. Where a SMILES comes first, the peptide text is derived from it. [ ]: non-standard residue; d: D form. The star is where a group is joined. Sta = CC(C)C[C@H](N)[C@@H](O)CC(=O)O; Isovaleryl = CC(C)CC(=O)*

In data set [1] (from CC(C)(C)OC(=O)N[C@@H](CNC(=O)OCc1ccccc1)C(=O)N[C@@H](CC1CCCCC1)[C@@H](O)C(=O)OCCCCC(=O)OCc1ccccc1, DPPA, triethylamine), `CC(C)(C)OC(=O)N[C@H]1CNC(=O)CCCCOC(=O)[C@H](O)[C@H](CC2CCCCC2)NC1=O` came in with a ring closure, yield of all isomers of 27%.

`O=C(N[C@H]1CSCCC[C@H](CN2CCOCC2)OC(=O)[C@H](O)[C@H](CC2CCCCC2)NC1=O)OCc1ccccc1` yielded a ring closure, yield of all isomers in data set [1] (from N[C@@H](CC1CCCCC1)[C@@H](O)C(=O)O[C@H](CCCSC[C@H](NC(=O)OCc1ccccc1)C(=O)O)CN1CCOCC1) of 38%.

Molecule `CC(C)(C)OC(=O)N[C@H]1CCC(=O)NCCCC2(OCCO2)[C@H](O)[C@H](CC2CCCCC2)NC1=O` yielded a ring closure, yield of all isomers in data set [1] (from CC(C)(C)OC(=O)N[C@@H](CCC(=O)OCc1ccccc1)C(=O)N[C@@H](CC1CCCCC1)[C@@H](O)C1(CCCN=[N+]=[N-])OCCO1, DPPA, triethylamine) of 30%.

As for `CC1CC(=O)NCCOC(=O)[C@H](O)[C@H](CC2CCCCC2)NC(=O)[C@H]1NC(=O)OCc1ccccc1` (stereo partly shown), the ring closure, yield of all isomers in data set [1] (from CC(CC(=O)NCCOC(=O)[C@@H]1OC(C)(C)N(C(=O)OC(C)(C)C)[C@H]1CC1CCCCC1)[C@H](NC(=O)OCc1ccccc1)C(=O)OCC[Si](C)(C)C) worked out at 62%.

With `CC(C)CC1CNC(=O)CC[C@H](NC(=O)OCc2ccccc2)C(=O)N[C@@H](CC2CCCCC2)[C@@H](O)C(=O)O1` (stereo partly shown), in data set [1] (from CC(C)CC(CNC(=O)CC[C@H](NC(=O)OCc1ccccc1)C(=O)OC(C)(C)C)OC(=O)[C@@H]1OC(C)(C)N(C(=O)OC(C)(C)C)[C@H]1CC1CCCCC1, THF), the ring closure, yield of all isomers is 51%.

In data set [1] (from CC(C)(C)OC(=O)[C@H](CCC(=O)NCC(CN1CCOCC1)OC(=O)[C@@H]1OC(C)(C)N(C(=O)OC(C)(C)C)[C@H]1CC1CCCCC1)NC(=O)OCc1ccccc1), `O=C1CC[C@H](NC(=O)OCc2ccccc2)C(=O)N[C@@H](CC2CCCCC2)[C@@H](O)C(=O)OC(CN2CCOCC2)CN1` (stereo partly shown) showed a ring closure, yield of all isomers of 61%.

For `CC(C)CC(=O)N[C@@H](Cc1c[nH]cn1)C(=O)N1CCC[C@H]1C(=O)N[C@@H](Cc1ccccc1)C(=O)N[C@@H](Cc1c[nH]cn1)C(=O)N[C@@H](CC(C)C)[C@@H](O)CC(=O)N[C@@H](CC(C)C)C(=O)N[C@@H](Cc1ccccc1)C(N)=O` [SCRIP, Iva-His-Pro-Phe-His-Sta-Leu-Phe-NH2] (Isovaleryl-HPFH[Sta]LF-NH2), the “ED50 (i.v. dose required to lower blood pressure by 50% of the maximal response)” value in data set [2] worked out at 0.039 µmol/kg.

For `O=C1CC[C@H](NC(=O)OCc2ccccc2)C(=O)N[C@@H](CC2CCCCC2)[C@@H](O)C(=O)OC(CN2CCOCC2)CO1` (stereo partly shown), in data set [1] (from CC(C)(C)OC(=O)[C@H](CCC(=O)OCC(CN1CCOCC1)OC(=O)[C@@H]1OC(C)(C)N(C(=O)OC(C)(C)C)[C@H]1CC1CCCCC1)NC(=O)OCc1ccccc1, THF), the ring closure, yield of all isomers was found to be 32%.

On to `O=C(N[C@H]1CSCCCCOC(=O)[C@H](O)[C@H](CC2CCCCC2)NC1=O)OCc1ccccc1`, for which, in data set [1] (from N[C@@H](CC1CCCCC1)[C@@H](O)C(=O)OCCCCSC[C@H](NC(=O)OCc1ccccc1)C(=O)O), the ring closure, yield of all isomers is 34%.

As for `CCCCC1CNC(=O)CC[C@H](NC(=O)OCc2ccccc2)C(=O)N[C@@H](CC2CCCCC2)[C@@H](O)C(=O)O1` (stereo partly shown), in data set [1] (from CCCCC(CNC(=O)CC[C@H](NC(=O)OCc1ccccc1)C(=O)OC(C)(C)C)OC(=O)[C@@H]1OC(C)(C)N(C(=O)OC(C)(C)C)[C@H]1CC1CCCCC1, EDC/HOBt), the ring closure, yield of all isomers came out at 54%.
